According to ChEMBL document CHEMBL4665787, “Bifunctional and Unusual Amino Acid β- or γ-Ester Prodrugs of Nucleoside Analogues for Improved Affinity to ATB and Enhanced Metabolic Stability: An Application to Floxuridine” (J Med Chem, 2020):
Activity calls are given as the source filed them. No cut-off for these calls is given here.

How the values were obtained:
[1] = target: T1, Sodium- and chloride-dependent neutral and basic amino acid transporter B(0+) (Homo sapiens, UniProt Q9UN76); assay: Substrate activity at SLC6A14 (unknown origin) expressed in Xenopus laevis oocytes assessed as inhibition of glycine uptake incubated for 10 mins by HPLC/MS/MS analysis; type: cell-based, Oocyte
T1 sequence (Q9UN76 whole entry): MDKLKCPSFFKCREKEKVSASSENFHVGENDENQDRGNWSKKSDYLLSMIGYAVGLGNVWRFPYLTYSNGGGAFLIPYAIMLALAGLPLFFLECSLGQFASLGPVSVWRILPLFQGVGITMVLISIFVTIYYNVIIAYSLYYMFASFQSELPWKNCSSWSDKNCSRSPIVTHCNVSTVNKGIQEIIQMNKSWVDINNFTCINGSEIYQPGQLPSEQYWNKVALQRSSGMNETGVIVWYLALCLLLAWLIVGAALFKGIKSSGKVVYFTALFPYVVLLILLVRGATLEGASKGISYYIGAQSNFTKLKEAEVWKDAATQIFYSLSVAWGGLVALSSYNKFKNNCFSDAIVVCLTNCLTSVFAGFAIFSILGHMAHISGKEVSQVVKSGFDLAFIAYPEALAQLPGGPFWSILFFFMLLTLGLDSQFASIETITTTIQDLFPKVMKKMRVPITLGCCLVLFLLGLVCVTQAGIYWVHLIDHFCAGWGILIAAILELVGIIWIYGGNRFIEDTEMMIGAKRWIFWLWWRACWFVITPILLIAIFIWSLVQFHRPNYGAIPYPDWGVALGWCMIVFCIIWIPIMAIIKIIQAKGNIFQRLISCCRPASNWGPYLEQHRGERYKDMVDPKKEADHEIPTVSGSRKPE

[2] = target: T2, Sodium- and chloride-dependent neutral and basic amino acid transporter B(0+) (Homo sapiens) (UniProt Q9UN76); assay: Substrate activity at SLC6A14 (unknown origin) expressed in Xenopus laevis oocytes assessed as inhibition of drug uptake at 0.5 mM incubated for 10 mins in presence of glycine by HPLC analysis relative to control; type: cell-based; settings: Oocyte
T2 sequence (whole entry): T1 sequence (Q9UN76 whole entry)

[3] = target: T2, Sodium- and chloride-dependent neutral and basic amino acid transporter B(0+) (Homo sapiens); assay: Substrate activity at SLC6A14 (unknown origin) expressed in Xenopus laevis oocytes assessed as increase in ABT0+ mediated drug uptake at 1 mM in presence of Cl- ion by HPLC analysis; type: cell-based; settings: Oocyte
[4] = Half life of compound in PBS buffer at pH 7.4 at 200 uM by HPLC analysis; type: physicochemical
[5] = Half life of compound in human ZR-75-1 cell homogenate; type: ADME, tissue-based
[6] = Half life of compound in human MIA PaCa-2 cell homogenate; type: ADME, tissue-based
[7] = test system: ZR-75-1; assay: Potency index, ratio of FUdR GI50 to test compound GI50 for growth inhibition of human ZR-75-1 cells; type: functional
[8] = Toxicity in NOD SCID nude mouse xenografted with human ZR-75-1 cells assessed as body weight at 90 mg/kg, iv for 20 days (reference value: 29.2 +/- 2.5g); type: organism-based; settings: in vivo, 480 h, time 20 day
[9] = test system: ZR-75-1; assay: Antitumour activity against human ZR-75-1 cells xenografted in NOD SCID nude mouse assessed as tumour inhibition at 90 mg/kg, iv administered for 20 days measured every 2 day by caliper method relative to control; type: functional; settings: ZR-75-1, iv, 480 h, time 20 day
[10] = test system: MDA-MB-231; assay: Antitumour activity against human MDA-MB-231 cells xenografted in NOD SCID nude mouse assessed as tumour inhibition at 90 mg/kg, iv administered for 20 days measured every 2 day by caliper method relative to control; type: functional; settings: MDA-MB-231, iv, 480 h, time 20 day
[11] = AUC (0 to t) in NOD SCID nude mouse plasma xenografted with ZR-75-1 cells assessed as fluorouracil AUC at 90 mg/kg, iv measured up to 24 hrs by HPLC-MS/MS analysis; type: ADME, organism-based; design: route intravenous, dose 90 mg/kg, time <=24; settings: in vivo
[12] = AUC (0 to t) in NOD SCID nude mouse plasma xenografted with ZR-75-1 cells assessed as floxuridine; 5-fluoro-2-deoxyuridine AUC at 90 mg/kg, iv measured up to 24 hrs by HPLC-MS/MS analysis; type: ADME, organism-based; design: route intravenous, dose 90 mg/kg, time <=24; settings: in vivo
[13] = AUC (0 to t) in NOD SCID nude mouse tumour xenografted with ZR-75-1 cells assessed as floxuridine; 5-fluoro-2-deoxyuridine AUC at 90 mg/kg, iv measured up to 24 hrs by HPLC-MS/MS analysis; type: ADME, organism-based, Neoplasm; settings: in vivo
[14] = Ratio of AUC (0 to t) in NOD SCID nude mouse plasma xenografted with ZR-75-1 cells to AUC (0 to t) in NOD SCID mouse tumour xenografted with ZR-75-1 cells; type: ADME, cell-free, Tumor/Plasma

SMILES: N[C@@H](CC(=O)OC[C@H]1O[C@@H](n2cc(F)c(=O)[nH]c2=O)C[C@@H]1O)C(=O)O
- IC50 [1]: 820 µM
- inhibition [2]: 50%
- Activity [3]: Active
- half-life at 200 µM [4]: 286 min
- half-life [5]: 13.4 min
- half-life [6]: 16.4 min
- RatioGI50 [7]: 7
- Activity [8]: 26.8 g
- inhibition in vivo at 90 mg/kg [9]: 58.6%
- inhibition in vivo at 90 mg/kg [10]: 33.8%
- AUCt [11]: 588.2 ng·h/mL
- AUC [12]: 1172.9 ng·h/mL
- AUCt [13]: 4600.1 ng·h/g
- Ratio [14]: 3.9
